# Reference: patent publication US20260294871A1, “PHARMACEUTICAL COMBINATIONS AND COMPOSITIONS THEREOF COMPRISING ANTIBACTERIAL AGENTS” (priority 2023, published 2026)
# Like-named read-outs stand apart in the source and are kept apart here.
# How the values were obtained:
# P. aeruginosa = assay: MIC by broth microdilution against P. aeruginosa; assay type: cell-based, Pseudomonas aeruginosa
# Protocol: (§1) In a typical study MIC tests were performed by broth microdilution in line with CLSI susceptibility testing standards. Bacterial inocula were prepared at ca. 1×10^6 CFU/mL by diluting 100-fold a 0.5 McFarland suspension in CA-MHB with TES. Microtiter plate wells containing 50 μL of antibacterial solutions at 2×the final concentrations were diluted 2-fold with 50 μL of inoculum to give a final inoculum of ca. 5×10^5 CFU/mL and desired test concentrations of antibacterial agents. Test microtiter plates were incubated according to CLSI guidelines and read visually. MIC values corresponded to the first well with no visible growth.
# The results of antibacterial activity of amikacin, Ceftazidime-avibactam, Ceftriaxone with sulbactam and EDTA, Meropenem and Meropenem with avibactum and EDTA against highly resistant strains of P. aeruginosa are given in Table 5. As may be seen, the activity of the comparators was much lower although CRO/S4/E10 maximum MIC90 were much lower at ≤0.03 μg/mL.
# Escherichia coli = assay: MIC by broth microdilution against E. coli; assay type: cell-based
# Protocol: as §1
# The results of antibacterial activity of amikacin, Ceftazidime-avibactam, Ceftriaxone with sulbactam and EDTA, Meropenem and Meropenem with avibactam and EDTA against highly resistant strains of Escherichia coli are given in Table 3. […] There was a marked improvement in antibacterial activity, compared to MEM alone, observed for the triple combination MEM/AVI [4 mg/L]/EDTA [10 mM] with a MIC90 at 0.004 μg/mL
# [1] = test system: Enterobacterales isolates from India; assay: MIC by broth microdilution against Enterobacterales; assay type: cell-based, Enterobacteriaceae
# Protocol: as §1
# The results of antibacterial activity of amikacin, Ceftazidime-avibactam, Ceftriaxone with sulbactam and EDTA, Meropenem and Meropenem with avibactam and EDTA against highly resistant strains of Enterobacteriaceae are given in Table 2.
# [2] = test system: E. coli, K. pneumoniae, P. aeruginosa A. baumannii and E. cloacae; assay: Effects of body fluids on MIC, all tested isolates; assay type: cell-based, Gram-negatives clinical isolates
# Protocol: Objective: The combinations of meropenem (MEM) in the presence of different concentrations of avibactam (AVI) and EDTA were tested. The triple combination test compounds were investigated for in-vitro activity in presence cation-adjusted Mueller Hinton broth (CA-MHB) and CA-MHB supplemented with different body fluids i.e. human serum (25% and 50%), pooled urine (25% and 50%), bovine Surfactant (1 and 5%) and human peritoneal fluid (25 and 50%) against the a set of Gram-negatives clinical isolates from India.
# Method: The tolerance screening was performed on a total of 60 isolates to ascertain tolerance to body fluids and total 19 isolates including ATCC strains and non-duplicate clinically relevant Escherichia coli (n=6), Klebsiella pneumoniae (n=3), Pseudomonas aeruginosa (n=6) Acinetobacter baumannii (n=3) and Enterobacter cloacae (n=1) were selected prior to susceptibility testing. Tested compounds included Meropenem with AVI at 4 and EDTA at 10 mM (MEM/A4/E10), Meropenem with AVI at 4 and EDTA at 20 mM (MEM/A4/E20), Meropenem with AVI at 8 and EDTA at 10 mM (MEM/A8/E10), Meropenem with AVI at 8 and EDTA at 20 mM (MEM/A8/E20), Meropenem (MEM), Ceftriaxone with sulbactam at […] and EDTA at 10 mM (CRO/S10/E10), Ceftazidime-avibactam (CZA), Amikacin (AMK), Tigecycline and Minocycline. […]
structure (smiles),measurement,setting,value
"C[C@@H](O)[C@H]1C(=O)N2C(C(=O)O)=C(S[C@@H]3CN[C@H](C(=O)N(C)C)C3)[C@H](C)[C@H]12 [Meropenem, (4R,5S,6S)-3-(((3S,5S)-5-(dimethylcarbamoyl)pyrrolidin-3-yl)thio)-6-((R)-1-hydroxyethyl)-4-methyl-7-oxo-1-azabicyclo[3.2.0]hept-2-ene-2-carboxylic acid]",MIC90,P. aeruginosa; MEM-NS isolates (n=120),> 32 µg/mL
same,MIC50,"P. aeruginosa; Pseudomonas aeruginosa, highly resistant strains",> 32 µg/mL
same,MIC90,"P. aeruginosa; Pseudomonas aeruginosa, highly resistant strains, read-out: MIC90",> 32 µg/mL
same,MIC90,P. aeruginosa; highly resistant strains,>32 µg/mL
same,MEM-NS isolates,P. aeruginosa; n=120,92.7%
same,MIC50,"Escherichia coli; Escherichia coli, highly resistant strains, read-out: MIC50",> 32 µg/mL
same,MIC90,"Escherichia coli; Escherichia coli, highly resistant strains, read-out: MIC90",> 32 µg/mL
same,MIC50,Escherichia coli; MEM-NS isolates (n=105),> 32 µg/mL
same,MIC90,Escherichia coli; MEM-NS isolates (n=105),> 32 µg/mL
same,MIC50,Escherichia coli; highly resistant strains,>32 µg/mL
same,MIC90,Escherichia coli; highly resistant strains,>32 µg/mL
same,MEM-NS isolates,Escherichia coli; n=105,88.2%
same,MIC50,[1],> 32 µg/mL
same,MIC90,[1],> 32 µg/mL
same,isolates resistant to meropenem (MEM NS),[1]; 250 out of 301,82.7%
same,MIC50,[1]; MEM-NS isolates (n=250),> 32 µg/mL
same,MIC90,[1]; MEM-NS isolates (n=250),> 32 µg/mL
same,MIC50,[1]; n=301,>32 µg/mL
same,MIC90,[1]; n=301,>32 µg/mL
same,MIC,[2],> 32 µg/mL
